In US20140088006A1, “Stem Cell Mobilization and Tissue Repair and Regeneration” (Wellstat Therapeutics Corporation, priority 2011, published 2014):
“And” between values parts separate entries of the source, which are not always exact repeats. Identical values can stand only once. No end group written: not given here.

Legend:
[1] = test system: white blood cells in peripheral blood; experiment: White blood cell count in peripheral blood after single subcutaneous injection; type: in vivo, C57Bl6 mice; conditions: for White Blood Cell counts: Cell Count: individual mice
Experimental: C57Bl6 male mice, from 8 weeks to 4 month of age, from Harlan were used. Mice received subcutaneous injections of saline, Compound X (50 μg/kg) or Compound X (250 μg/kg). After 1 and 4 hours, mice were anesthetized and blood was collected through the orbital sinus with heparinized capillary tubes. 20 μl of blood was removed from each tube for WBC counts;
In this experiment, C57Bl6 mice received subcutaneous injections of PBS, Compound X (250 μg/kg) or AMD3100 (5 mg/kg). After 1 hr blood was collected through the orbital sinus with heparinized capillary tubes. Blood from each group was pooled, counted and mononuclear cells were isolated by density gradient separation. Cells were washed, counted and plated at 100,000 per dish (5 dishes/group) for CFU-GEMM and CFU-GM colonies. CFU-GEMM colonies were scored on day 14, while CFU-GM colonies on day 7 after plating in MC3434 (Stem cell Technology).

[2] = test system: CFU-GEMM progenitor cells; experiment: Mobilization of CFU-GEMM in diabetic db/db mice; type: in vivo
[3] = Blood glucose before and 7 weeks after treatment in wound healing study; type: in vivo, db/db mice; conditions: 4 days i.v. treatment course; 7 weeks after the treatment
Experimental: Note, that mice were taken for the wound healing experiment when their glucose level was high; baseline glucose was measured by glucometer from tail bleed one day before the wound healing experiment next glucose measurement was taken at the end of the study, 7 weeks after the treatment with intravenous injections of Compound X or Saline.

[4] = test system: CFU-GEMM / CFU-GM colony-forming cells; experiment: CFU colony assay of peripheral blood on day 7 after 5 daily subcutaneous injections; type: in vivo, DBA/2J male mice
Experimental: Mobilization of hematopoietic stem and progenitor cells from bone marrow into peripheral blood is important for tissue regeneration. However, this physiological mechanism is often insufficient, including in elderly patients and people with diabetes. In order to look at the ability of Compound X mobilized stem cells to mediate tissue regeneration, multiple in vivo injections of Compound X were administered. A group of DBA/2J male mice were injected subcutaneously for 5 consecutive days with 250 ug/kg Compound X in Saline. Another group of mice received injections of vehicle only. Peripheral blood from 3 mice from each of these groups was then harvested from the orbital plexus at 7 days post initial injection. Blood was also harvested and pooled from 3 naïve mice to serve as an additional control group. To determine mobilization of pluripotent colony-forming cells from bone marrow into peripheral blood, mononuclear cells obtained from blood were plated into MethoCult 3434 media (Stem Cell Technologies 03434). Briefly, peripheral blood from three mice was pooled, diluted (1:1, v/v) with 0.9% saline (APP Pharmaceutical) and layered (2:1, v/v) onto 1-Step™1.077 A (Accurate Chemicals AN224510) in 15-ml centrifuge tubes. Cells were centrifuged at 600×g for 20 min at room temperature. The mononuclear cells were harvested from the interface between the plasma layer and the 1-Step™ A solution using a 1-ml syringe and 16G blunt-end needle (Stem Cell Technologies 28120). The cells were transferred to 15-ml centrifuge tubes and washed twice in 1×PBS. The cells were placed into 35-mm Petri dishes at 100,000 cells per dish with 5 dishes per group. Cells incubated for 10 days in a 37° C. and 5% CO2 humidified incubator. CFU-GM colonies consisting of granulocytic and monocytic cells and CFU-GEMM colonies representing mixed cell populations of granulocytes, macrophages and erythroid cells were then scored using an inverted microscope. Blood was taken at Zeitgeber Time 4 (ZT4) which corresponded to the physiological time of cell emigration from bone marrow—the circadian stem cell mobilization peak.

HSC and HPC = experiment: CFU-GM / CFU-GEMM colony assay after 4 daily injections of G-CSF and Compound X; type: in vivo, mice; conditions: for CFU-GEMM numbers, MEAN / CFU-GM numbers, MEAN / CFU-GEMM numbers / CFU-GM numbers: 5 μg/mouse each agent s.c. daily for 4 days; for CFU-GEMM numbers / CFU-GM numbers: individual dishes; for Fold increase in number of CFU-GM / Fold increase in number of CFU-Mix (CFU-GEMM): multiple injections, 5 μg/mouse each agent
Experimental: Compound X and Neupogen (rG-CSF Amgen, lot# P043601) were diluted in PBS. Mice received subcutaneous injections of PBS, Compound X (5 μg/mouse), G-CSF (5 μg/mouse) or Compound X (5 μg/mouse)+G-CSF (5 μg/mouse) for four consecutive days. […] Mononuclear cells were isolated by density gradient separation from pooled blood. […] Blood was also collected and processed on day 8 for colony assay. Results are shown in Tables 10, 11, and 12 and in FIG. 5.

[5] = 250 ug/kg s.c. 5 consecutive days, day 7
[6] = 250 ug/kg s.c. 5 consecutive days, day 7, individual dishes
[7] = 250 ug/kg/day for 5 days, day 7
[8] = DBA mice, multiple s.c. 250 ug/kg

For “FPHFDLSHGSAQV [Compound X, tridecapeptide that acts on stem cells]”, the “White blood cell count: Cell Count” value ([1]; s.c. 250 μg/kg, 1 hr, pooled blood) was 7.2e+06 mL⁻¹, the “White Blood Cell counts: Cell Count” value ([1]; single s.c. 50 μg/kg, 1 hour) was 1.41e+07 mL⁻¹ and 7.8e+06 mL⁻¹ and 9.6e+06 mL⁻¹ and the “White Blood Cell counts: Cell Count” value ([1]; single s.c. 50 μg/kg, 4 hours) was 2.22e+07 mL⁻¹ and 6.9e+06 mL⁻¹ and 1e+07 mL⁻¹. For the same sequence, the “White Blood Cell counts: Cell Count” value ([1]; single s.c. 250 μg/kg, 1 hour) was 9.6e+06 mL⁻¹ and 9.2e+06 mL⁻¹ and 1.79e+07 mL⁻¹, the “White Blood Cell counts: Cell Count” value ([1]; single s.c. 250 μg/kg, 4 hours) was 1.67e+07 mL⁻¹ and 1.46e+07 mL⁻¹ and 1.03e+07 mL⁻¹ and the “egress of cells from bone marrow into peripheral blood (white blood cell count)” value ([1]; single s.c. 50 or 250 μg/kg) was “did not cause massive egress of cells”. The “increase of CFU-GEMM number in peripheral blood vs Vehicle or 250 ug/kg” value ([2]; intravenous 5 mg/kg, one-hour post injection) was over 3 times, the “mobilization of progenitor cells into the peripheral blood” value ([2]; subcutaneous, doses as high as 5 mg/kg) was “failed to mobilize” and the “glucose level in blood” value [3] was “decreased glucose level”. The “CFU-GEMM AVG” value [4, 5] was 11.4 colonies/100,000 MNCs, the “CFU-GEMM Average” value [4, 5] was 79.8 Colonies/ml of Peripheral Blood and the “CFU-GM AVG” value [4, 5] was 12.4 colonies/100,000 MNCs. The “CFU-GM Average” value [4, 5] was 86.8 Colonies/ml of Peripheral Blood, the “CFU-GEMM Colony #” value [4, 6] was 8 colonies/100,000 MNCs (2×) and 13 colonies/100,000 MNCs and 12 colonies/100,000 MNCs and 16 colonies/100,000 MNCs and the “CFU-GM Colony #” value [4, 6] was 13 colonies/100,000 MNCs (2×) and 14 colonies/100,000 MNCs (2×) and 8 colonies/100,000 MNCs. The “number of circulating CFU-GM” value [4, 7] was “did not change”, the “total CFU-GEMM number in circulation vs naïve or vehicle mice” value [4, 7] was 3 times higher and the “increase in CFU-GEMM number per ml of blood vs saline control group” value [4, 8] was 3.3 fold. The “increase in CFU-GEMM number per ml of blood vs untreated control group” value [4, 8] was 3.8 fold, the “CFU-GEMM numbers, MEAN” value (HSC and HPC; Day 4) was 2.4 per 100000 mononuclear cells and the “CFU-GM numbers, MEAN” value (HSC and HPC; Day 4) was 9.6 per 100000 mononuclear cells. For the same sequence, the CFU-GEMM numbers (HSC and HPC; Day 4) was 3 per 100000 mononuclear cells (2×) and 0 per 100000 mononuclear cells and 4 per 100000 mononuclear cells and 2 per 100000 mononuclear cells, the CFU-GM numbers (HSC and HPC; Day 4) was 7 per 100000 mononuclear cells and 6 per 100000 mononuclear cells and 13 per 100000 mononuclear cells and 11 per 100000 mononuclear cells (2×) and the “CFU-GEMM numbers, MEAN” value (HSC and HPC; Day 8) was 0.6 per 100000 mononuclear cells. For the same sequence, the “CFU-GM numbers, MEAN” value (HSC and HPC; Day 8) was 0.6 per 100000 mononuclear cells, the CFU-GEMM numbers (HSC and HPC; Day 8) was 1 per 100000 mononuclear cells (3×) and 0 per 100000 mononuclear cells (2×) and the CFU-GM numbers (HSC and HPC; Day 8) was 1 per 100000 mononuclear cells (3×) and 0 per 100000 mononuclear cells (2×). For the same sequence, the “number of CFU-GEMM or CFU-GM” value (HSC and HPC; 5 μg/mouse s.c. daily for 4 days, day 8) was “no difference found”, the “Fold increase in number of CFU-GM” value (HSC and HPC; Day 4) was 1.9 Fold and the “Fold increase in number of CFU-Mix (CFU-GEMM)” value (HSC and HPC; Day 4, 1 hr after the last injection) was 1.7 Fold. For the same sequence, the “Fold increase in number of CFU-GM” value (HSC and HPC; Day 8) was 0 Fold and the “Fold increase in number of CFU-Mix (CFU-GEMM)” value (HSC and HPC; Day 8) was 0 Fold.
